Values of other authors as cited in patent publication US20220378880A1, “PHARMACEUTICAL COMPOSITIONS OF GHRH ANALOGS AND USES THEREOF” (Theratechnologies Inc., priority 2019, published 2022).

[1] = healthy subjects, single SC 2 mg dose

In the case of `CC/C=C/CC(=O)N[C@@H](Cc1ccc(O)cc1)C(=O)N[C@@H](C)C(=O)N[C@@H](CC(=O)O)C(=O)N[C@@H](C)C(=O)N[C@H](C(=O)N[C@@H](Cc1ccccc1)C(=O)N[C@H](C(=O)N[C@@H](CC(N)=O)C(=O)N[C@@H](CO)C(=O)N[C@@H](Cc1ccc(O)cc1)C(=O)N[C@@H](CCCNC(=N)N)C(=O)N[C@@H](CCCCN)C(=O)N[C@H](C(=O)N[C@@H](CC(C)C)C(=O)NCC(=O)N[C@@H](CCC(N)=O)C(=O)N[C@@H](CC(C)C)C(=O)N[C@@H](CO)C(=O)N[C@@H](C)C(=O)N[C@@H](CCCNC(=N)N)C(=O)N[C@@H](CCCCN)C(=O)N[C@@H](CC(C)C)C(=O)N[C@@H](CC(C)C)C(=O)N[C@@H](CCC(N)=O)C(=O)N[C@@H](CC(=O)O)C(=O)N[C@H](C(=O)N[C@@H](CCSC)C(=O)N[C@@H](CO)C(=O)N[C@@H](CCCNC(=N)N)C(=O)N[C@@H](CCC(N)=O)C(=O)N[C@@H](CCC(N)=O)C(=O)NCC(=O)N[C@@H](CCC(=O)O)C(=O)N[C@@H](CO)C(=O)N[C@@H](CC(N)=O)C(=O)N[C@@H](CCC(N)=O)C(=O)N[C@@H](CCC(=O)O)C(=O)N[C@@H](CCCNC(=N)N)C(=O)NCC(=O)N[C@@H](C)C(=O)N[C@@H](CCCNC(=N)N)C(=O)N[C@@H](C)C(=O)N[C@@H](CCCNC(=N)N)C(=O)N[C@@H](CC(C)C)C(N)=O)[C@@H](C)CC)C(C)C)[C@@H](C)O)[C@@H](C)CC` [tesamorelin, trans-3-hexenoyl-GHRH(1-44)-NH2], the Absolute bioavailability (healthy adult subjects, SC 2 mg dose) is given as “less than 4%”, the “Extent of absorption, mean (CV)” value [1] is given as 634.6 (72.4) pg·h/mL and the “Peak tesamorelin concentration (Cmax), mean (CV)” value [1] is given as 2874.6 (43.9) pg/mL. The “Thalf (expected)” value (single SC 2 mg dose) was 0.4 h and the “Tmax (expected)” value (single SC 2 mg dose, median) was 9 min.
